Data reported in patent publication US6111145A, “Cyclopentenone derivative” (Takara Shuzo Company, priority 1997, dated 2000).

Key:
[1] = set-up: species or system mice; settings: mouse, in vivo, 300 mg/kg
topoisomerase II = topoisomerase II (Homo sapiens, UniProt P11388); experiment: Topoisomerase II inhibition, pBR322 DNA relaxation by agarose gel electrophoresis; type: biochemical
Description: (1) One μl of 0.25 μg/μl pBR322 DNA (manufactured by Takara Shuzo) was added to a mixture of 2 μl of topoisomerase II (manufactured by TopoGEN, 2 units/μl), 2 μl of a buffer with a ten-fold diluted concentration [0.5M Tris-HCl (pH 8.0), 1.2M KCl, 0.1M MgCl2, 5 mM adenosine triphosphate and 5 mM dithiothreitol], 2 μl of 0.1% bovine serum albumin (manufactured by Takara Shuzo), 11 μl of distilled water and 2 μl of distilled water (a control) or 4,5-di-tert-butylcyclopentenone ether prepared into various concentrations by water and made to react at 37° C. After the reaction for 30 minutes, the reaction was stopped by adding 2 μl aqueous solution of 1% sodium dodecylsulfate, 50% glycerol and 0.02% Bromophenol Blue.
The above reaction solution (20 μl) was applied to 1% agarose gel prepared from agarose L03 (manufactured by Takara Shuzo) and TAE buffer [40 mM Tris, 5mM sodium acetate and 1 mM disodium ethylenediaminetetraacetate (EDTA); adjusted to pH 7.8 with acetic acid] and electrophoresis was conducted in the TAE buffer. After the electrophoresis, the gel was dipped in an aqueous solution of 1 μg/ml ethidium bromide and irradiated with ultraviolet ray to observe the electrophoretic pattern of DNA.

[2] = tested on: carrageenan-induced pedal edema; experiment: Carrageenan-induced pedal edema model; type: in vivo; settings: Lewis rats, oral 1 or 10 mg/kg in olive oil 0.5 hour before carrageenan, paw volume after three hours
Description: Lewis rats (male; nine weeks age; body weight: about 250 g) were purchased from Seakku-Yoshitomi and the inflammation models such as carrageenan-induced pedal edema model (a model of rheumatoid arthritis) were prepared as follows whereby the tested substances were evaluated.
Thus, 4-tert-butylcyclopentenone ether or 4,5-di-tert-butylcyclopentenone ether in various concentrations by dissolving in olive oil (manufactured by Nacalai Tesque) was orally administered at the dose of 1 mg/10 ml/kg or 10 mg/10 ml/kg to rats which were fasted for 18 hours before initiation of the experiment.
After 0.5 hour from administration of these test drugs, 100 μl/rat of 1% suspension of carrageenan (manufactured by Wako) in a physiologically saline solution (manufactured by Otsuka Pharmaceutical) was injected to right paw to induce pedal edema. After three hours from the carrageenan injection, volume of right paw of the rat was measured by a pedal volume measuring device (manufactured by UGO BASILE). Incidentally, the measured value was expressed by calculating the increasing rate from the right paw volume of each rat measured before the carrageenan administration.

[3] = tested on: Promyelocytic leukemia cell strain HL-60 (ATCC CCL-240); experiment: Growth of HL-60 cells, MTT method with microscopic observation; type: cell-based, human; settings: HL-60, at the concentration completely suppressing growth
Description: (1) A 1.22, 2.44, 4.88, 9.77, 19.5, 39.1, 78.1, 156, 313, 625, 1250, 2500, 5000 or 10000 μg/ml solution (10 μl) (in 70% aqueous solution of ethanol) of 4-benzylcyclopentenone ether, 5-benzylcyclopentenone ether or 4,5-dibenzylcyclopentenone ether or a 70% aqueous solution of ethanol as a control (10 μl) was added to each well of a 96-well microtiter plate followed by drying with air. Promyelocytic leukemia cell strain HL-60 (ATCC CCL-240) was suspended in an RPMI 1640 medium containing 10% of fetal calf serum to an extent of 1×10^5 cells/ml, each 100 μl thereof was poured into each well of the above microtiter plate and incubated at 37° C. for 48 hours in the presence of 5% of CO2. Incubation was continued for four hours more after addition of 10 μl of a solution (5 mg/ml) of 3-(4,5-dimethylthiazol-2-yl)-2,5-diphenyltetrazolium bromide (MTT; manufactured by Sigma) in a phosphate-buffered aqueous saline solution and then the state of growth of the cells was observed under a microscope. Further, 100 μl of 2-propanol containing 0.04N HCl was added thereto followed by well stirring and the absorbance at 590 nm was measured.
(2) Influence of 4-tert-butylcyclopentenone ether, 5-tert-butylcyclopentenone ether or 4,5-di-tert-butylcyclopentenone ether to the growth of HL-60 cells was measured by the same method as in Example 2-(1).

Chain of topoisomerase II (P11388 whole entry): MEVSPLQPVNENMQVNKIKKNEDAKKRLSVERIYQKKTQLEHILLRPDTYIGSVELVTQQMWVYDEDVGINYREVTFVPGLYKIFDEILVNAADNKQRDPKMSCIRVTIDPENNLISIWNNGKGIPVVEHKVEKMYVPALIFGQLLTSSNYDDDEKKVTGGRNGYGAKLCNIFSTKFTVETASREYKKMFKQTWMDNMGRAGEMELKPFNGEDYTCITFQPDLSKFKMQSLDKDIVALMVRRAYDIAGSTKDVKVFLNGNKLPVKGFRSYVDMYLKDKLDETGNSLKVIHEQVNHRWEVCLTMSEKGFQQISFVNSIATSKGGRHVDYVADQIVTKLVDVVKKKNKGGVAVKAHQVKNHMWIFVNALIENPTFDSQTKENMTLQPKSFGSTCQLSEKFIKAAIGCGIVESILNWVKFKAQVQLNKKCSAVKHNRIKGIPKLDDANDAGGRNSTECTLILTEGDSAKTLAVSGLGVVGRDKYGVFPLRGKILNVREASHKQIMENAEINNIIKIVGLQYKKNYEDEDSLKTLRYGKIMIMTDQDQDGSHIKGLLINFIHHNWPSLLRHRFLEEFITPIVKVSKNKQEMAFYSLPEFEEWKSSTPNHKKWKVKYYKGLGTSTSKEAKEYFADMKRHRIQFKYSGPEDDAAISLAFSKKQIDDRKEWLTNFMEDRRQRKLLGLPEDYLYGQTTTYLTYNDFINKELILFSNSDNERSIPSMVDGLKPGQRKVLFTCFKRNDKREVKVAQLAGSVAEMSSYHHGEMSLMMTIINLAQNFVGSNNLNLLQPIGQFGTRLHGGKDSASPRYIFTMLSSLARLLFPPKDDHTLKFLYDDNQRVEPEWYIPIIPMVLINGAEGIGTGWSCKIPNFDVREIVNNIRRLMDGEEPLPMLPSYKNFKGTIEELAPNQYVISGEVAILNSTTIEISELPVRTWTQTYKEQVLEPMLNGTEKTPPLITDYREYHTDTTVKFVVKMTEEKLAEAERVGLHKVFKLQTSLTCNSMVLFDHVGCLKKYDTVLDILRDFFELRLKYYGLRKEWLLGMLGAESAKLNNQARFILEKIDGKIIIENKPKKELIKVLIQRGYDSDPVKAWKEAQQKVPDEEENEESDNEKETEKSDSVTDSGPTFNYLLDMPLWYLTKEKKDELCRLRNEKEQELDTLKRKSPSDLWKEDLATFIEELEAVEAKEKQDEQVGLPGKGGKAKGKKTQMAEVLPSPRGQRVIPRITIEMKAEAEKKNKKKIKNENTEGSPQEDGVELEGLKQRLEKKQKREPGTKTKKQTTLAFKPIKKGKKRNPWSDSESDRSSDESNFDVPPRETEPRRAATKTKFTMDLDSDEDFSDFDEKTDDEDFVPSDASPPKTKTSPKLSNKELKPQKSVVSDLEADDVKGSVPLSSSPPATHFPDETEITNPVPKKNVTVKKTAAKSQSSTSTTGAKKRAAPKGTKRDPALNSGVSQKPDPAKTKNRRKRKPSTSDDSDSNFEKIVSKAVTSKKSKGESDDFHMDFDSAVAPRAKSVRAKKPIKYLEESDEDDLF

Row | SMILES | death after single oral administration [1] | suppressing action to edema induced by carrageenan (increasing rate of pedal edema) [2] | formation of apoptic body [3] | further results
1 | CC(C)(C)O[C@@H]1C(=O)C=C[C@H]1OC(C)(C)C (relative stereo) [4,5-di-tert-butylcyclopentenone ether] | no dead case was noted | showed an suppressing action to edema | – | superhelix DNA remaining (topoisomerase II; 250 μM in the reaction solution): the superhelix DNA remained to an medium extent; superhelix DNA remaining (topoisomerase II; 500 μM in the reaction solution): most of the superhelix DNA remained; superhelix DNA remaining (topoisomerase II; 1000 μM in the reaction solution): the superhelix DNA did not decrease at all; concentration in the reaction solution showing topoisomerase suppressing activity (topoisomerase II; pBR322 DNA, 37° C., 30 minutes): not less than 250 μM
2 | CC(C)(C)O[C@@H]1C=CC(=O)[C@H]1O (relative stereo) [4-tert-butylcyclopentenone ether] | no dead case was noted | showed an suppressing action to edema | – | –
3 | O=C1C=C[C@@H](OCc2ccccc2)[C@@H]1O (relative stereo) [4-benzylcyclopentenone ether] | – | – | Formation of apoptic body was noted | –
4 | O=C1C=C[C@@H](O)[C@@H]1OCc1ccccc1 (relative stereo) [5-benzylcyclopentenone ether] | – | – | Formation of apoptic body was noted | –
5 | O=C1C=C[C@@H](OCc2ccccc2)[C@@H]1OCc1ccccc1 (relative stereo) [4,5-dibenzylcyclopentenone ether] | – | – | Formation of apoptic body was noted | –
